The values below come from patent US20190076464A1, “CYTIDINE DEAMINASE INHIBITORS FOR THE TREATMENT OF PANCREATIC CANCER” (INSERM (OMSTOTIT NATIONAL DE LA SANTÉ ET DE LA RECHERCHE …, priority 2016, published 2019).

The test system of experiment [1] is cancer cell proliferation. The experiment in a line: Cancer cell proliferation, CDA targeting combined with metabolic inhibitor (FIG. 7). The experiment is classed as cell-based. The following applies: in combination with CDA targeting. An excerpt:
This finding opens several other combinatory therapeutic options as glutaminase (CB-839, FIG. 7) and α-KG dehydrogenase (CPI-613, a lipoate analog, inhibits mitochondrial enzymes pyruvate dehydrogenase (PDH) and α-KG dehydrogenase in NCI-H460 cell line, disrupts tumor cell mitochondrial metabolism) inhibitors are being evaluated clinically for PDA subjects^53.

Experiment [2] concerns pancreatic cancer cells. The experiment in a line: Sensitization of pancreatic cancer cells to gemcitabine by pharmacological inhibition of CDA (FIG. 6A). The experiment is classed as cell-based, human. The following applies: in vitro, CDA inhibitor combined with gemcitabine.
For experiment [3], the system named is pancreatic cancer cells. The experiment in a line: Tumor metabolism (NAD+/NADH ratio) under pharmacological inhibition of CDA (FIG. 6C). Type of experiment: cell-based, human. The following applies: CDA inhibitor alone, FIG. 6C (NAD+/NADH ratio).
Description: Accordingly, we measure the glycolytic flux in CDA-deficient cells and the expression of key proteins involved in glycolysis in response to CDA targeting.
Experiment [4] concerns pancreatic cancer cells. The experiment in a line: Cell proliferation under pharmacological inhibition of CDA, without chemotherapy (FIG. 6B). The experiment is classed as cell-based, human. The following applies: CDA inhibitor alone.
Experiment [5] deals with PDA. The following applies: in combination with gemcitabine, compared with gemcitabine alone, reference 6; cited from earlier work.
Experiment [6] relates to gemcitabine-resistant cells. The following applies: reference 13; cited from earlier work.

The structures appear in SMILES notation.

Turning to `O=CC[C@@H](O)[C@H](O)[C@H](O)CO` [2-deoxy Glucose], the cancer cell proliferation entry in experiment [1] is given as “strongly inhibits cancer cell proliferation”.
Still for that read-out and setting: as for `O=C(Cc1cccc(OC(F)(F)F)c1)Nc1ccc(CCCCc2nnc(NC(=O)Cc3ccccn3)s2)nn1` [CB839], the entry is “strongly inhibits cancer cell proliferation”.
`O=C1NCC=CCN1[C@@H]1O[C@H](CO)[C@@H](O)[C@H]1O` [DR, 1,3-diazepinone riboside]: the sensitization to gemcitabine entry in experiment [2] is “sensitizes pancreatic cancer cells to gemcitabine”. For the same compound, the tumor metabolism result in experiment [3] was “fails to alter”. Also, the cell proliferation result in experiment [4] is on record as “fails to alter cell proliferation”.
With `C#Cc1cccc(Nc2ncnc3cc(OCCOC)c(OCCOC)cc23)c1` [Erlotinib], the overall survival time entry in experiment [5] was “only slightly increases overall survival time”.
Consider `O=C1NC(O)CCN1[C@@H]1O[C@H](CO)[C@@H](O)[C@H]1O` (stereo partly shown) [THU, Tetrahydrouridine], for which the sensitivity to gemcitabine result in experiment [6] was “increases the sensitivity to gemcitabine”.
